Measured values published in US20260284011A1, “COMPOUNDS FOR RESTORING SUSCEPTIBILITY TO BETA-LACTAM ANTIBIOTICS” (UNIVERSITY OF NOTRE DAME DU LAC, priority 2023, published 2026).

Columns and labels:
[1] = test system: NRS144 strain; experiment: MIC of the inducer CBAP; assay type: cell-based, Staphylococcus aureus
[2] = test system: modified bla operons (pCN52RI, pCN52RI-venus, pCN52RI-mCherry); experiment: Induction of fluorescent reporters of the bla operon by CBAP; assay type: cell-based, S. aureus NRS144
Description: FIG. 4. Comparison of the fluorescence intensity produced by S. aureus NRS144 strains harboring pCN52RI, pCN52RI-venus and pCN52RI-mCherry. Each fluorescent protein was induced by the β-lactam antibiotic CBAP. The ratios of fluorescence in the presence of CBAP to that in the absence of it were 3, 10 and 5 for GFP, Venus, and mCherry, respectively. Data were derived from four independent assays.
(§1) Live-Cell Fluorescent Assay in Discovery and Mechanism of Action. We conceived of fluorescent constructs in the bla operon, for the purpose of screening (FIG. 2a). We removed the gene for the β-lactamase (blaZ) and put in its place individually the genes for the Green Fluorescent Protein (GFP), Venus (a yellow-fluorescent protein) or mCherry (a red-fluorescent protein) in the template plasmid pCN52. The three plasmids were named pCN52RI, pCN52RI-Venus and pCN52RI-mCherry, respectively. The genes for the fluorescent proteins were transcribed under the promoter of the blaZ gene and were regulated by the proteins BlaR and BlaI, as is the case for the wild-type bla operon.
(§2) We transformed separately S. aureus NRS144—a laboratory strain that accepts a foreign gene and harbors neither the bla nor the mec operons—with each of these plasmids. […] When induced, the fluorescent protein is produced and is detected (akin to expression of the resistance genes blaZ or mecA in typical MSSA and MRSA). […] The transformed strains were grown in tryptic soy broth medium for overnight culture and strain maintenance and incubated in cation-adjusted Mueller-Hinton broth medium for inhibitor screening in a 96-well microplate format. The culture without CBAP addition was the negative control. In order to select a desirable reporter construct, we compared the intensity of the fluorescence produced from each construct at the wavelengths given in FIG. 2a using the Cytation-5 multi-mode microplate reader. Among the three constructs, pCN52RI-Venus produced the best fluorescence intensity and pCN52RI-mCherry was the second best (FIG. 4).
Construction of the fluorescent-reporter systems. […]

[3] = test system: S. aureus; experiment: Potentiation of β-lactams by cyclic boronate β-lactamase inhibitors; assay type: cell-based, Staphylococcus aureus
[4] = target: BlaR (Staphylococcus aureus, UniProt P18357); experiment: Live-cell fluorescent assay for BlaR inhibition (Venus reporter); assay type: cell-based, S. aureus NRS144pCN52RI-Venus; details: compound at 100 mg/L^−1; CBAP 10 mg·L^−1; fluorescence after 2 h
Description: as §1, §2
(§3) The collection of the 100 compounds from the in-silico search was screened against S. aureus NRS144pCN52RI-Venus. The screening strategy was as follows. Bacteria grown to OD600 of 0.25 were exposed concurrently to CBAP (10 mg·L^−1) and the test compound (100 mg·L^−1). Fluorescence was recorded after two hours of incubation. OD600 values were also recorded to identify compounds with inherent antibacterial activity. Compound 1 (Chart 1) emerged—82% diminished fluorescence as an indication of the extent of BlaR inhibition—as a suitable template for structure elaboration. This effort led to the synthesis of several dozen benzimidazole and imidazole compounds. The progression of the iterative design is depicted in Chart 1 for four compounds, culminating in 4. […] The X-ray structures for the complexes of compounds 2 (non-covalent) and 4 (covalent) with the BlaR sensor domain are shown respectively in FIG. 2b (2.0 Å resolution) and FIG. 2c (1.97 Å resolution). Compound 4 makes a covalent bond with the catalytic Ser389 and creates a network of hydrogen bonds with the BlaR active site (FIG. 2c).
(§4) Fluorescent assay for screening of BlaR potential inhibitors. A 3-mL portion of lysogeny broth (LB) medium was inoculated with NRS144pCN52RI Venus from frozen stocks and grown overnight at 37° C. The overnight culture was then diluted 1:150 fold with fresh LB containing […] of erythromycin and incubated at 37° C. to an OD600 of 0.3, at which point fluorescence was induced by the addition of CBAP to a final concentration of 10 μg·mL^−1. The culture was aliquoted (99 L) into 96-well plate and 1 L of inhibitor solution (1 mg·mL^−1 in DMSO) was added to each well. Negative control (DMSO without CBAP) and positive control (CBAP without inhibitor) were included. The plate was incubated at 30° C. for 2 h with intermittent shaking. Fluorescence and OD600 measurements were taken by a Cytation-5 multimode microplate reader. Percent inhibition of BlaR and bacterial growth were calculated using absorbance unit (AU) and OD600 values of each sample entered into this formula: […]

[5] = test system: S. aureus NRS144pCN52RI-Venus; experiment: Bacterial growth inhibition (OD600) in the fluorescent screening assay; assay type: cell-based, Staphylococcus aureus; details: compound at 100 mg/L^−1; OD600 after 2 h
Protocol: as §3, §4

Chain of BlaR (P18357 whole entry): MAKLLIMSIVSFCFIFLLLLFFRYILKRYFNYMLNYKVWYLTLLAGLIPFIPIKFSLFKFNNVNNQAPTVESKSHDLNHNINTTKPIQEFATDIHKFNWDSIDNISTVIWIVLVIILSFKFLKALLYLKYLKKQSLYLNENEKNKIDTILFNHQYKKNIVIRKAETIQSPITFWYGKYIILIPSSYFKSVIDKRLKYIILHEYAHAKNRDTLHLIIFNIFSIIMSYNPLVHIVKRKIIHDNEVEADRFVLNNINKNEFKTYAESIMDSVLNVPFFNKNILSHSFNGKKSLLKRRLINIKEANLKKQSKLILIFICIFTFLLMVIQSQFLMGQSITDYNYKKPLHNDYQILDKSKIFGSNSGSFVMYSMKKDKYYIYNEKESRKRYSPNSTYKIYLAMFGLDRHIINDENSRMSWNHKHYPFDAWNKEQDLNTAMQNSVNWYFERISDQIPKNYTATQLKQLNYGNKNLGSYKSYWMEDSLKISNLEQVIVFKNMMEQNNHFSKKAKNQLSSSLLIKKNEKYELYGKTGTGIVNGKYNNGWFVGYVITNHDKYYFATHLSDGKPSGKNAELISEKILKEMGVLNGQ

“2-(2-carboxyphenyl)-benzoyl-6-aminopenicillanic acid [CBAP]” was tested, and the “minimal-inhibitory concentration (MIC)” value [1] was 64 µg/mL, the “ratio of fluorescence in the presence of CBAP to that in the absence” value (shortened to “ratio of fluorescence”) ([2]; GFP (pCN52RI)) was 3 and the “ratio of fluorescence” value ([2]; Venus (pCN52RI-venus)) was 10. The “ratio of fluorescence” value ([2]; mCherry (pCN52RI-mCherry)) was 5.

For `NCCN[C@H]1CC[C@H](CC(=O)N[C@H]2Cc3cccc(C(=O)O)c3OB2O)CC1` [taniborbactam], the “potentiation of the anti-S. aureus activities of MEM, OXA, FOX and CPT” value [3] was “no activity”.

For `O=S(=O)(O)c1nc2ccccc2n1Cc1ccc(Cl)cc1` [Compound 12], the “% Inhibition of BlaR” value [4] was 72% and the “% Inhibition of bacterial growth” value [5] was 0%.

With `O=C(CCc1ccc(F)cc1)NCc1ccc2nc(S)n(Cc3ccc(C(F)(F)F)cc3C(F)(F)F)c2c1` [Compound 29] the “% Inhibition of BlaR” value [4] was 59% and the “% Inhibition of bacterial growth” value [5] was 0%.

`OCc1ccc2nc(S)n(Cc3ccc(C(F)(F)F)cc3C(F)(F)F)c2c1` [Compound 17] was tested, and the “% Inhibition of BlaR” value [4] was 0% and the “% Inhibition of bacterial growth” value [5] was 99%.

`CC(=O)NCc1ccc2nc(S)n(Cc3ccc(C(F)(F)F)cc3C(F)(F)F)c2c1` was tested, and the “% Inhibition of BlaR” value [4] was 70% and the “% Inhibition of bacterial growth” value [5] was 0%.

With `O=S(=O)(Cl)c1nc(CO)cn1Cc1ccc(C(F)(F)F)cc1C(F)(F)F` [Compound 57] the “% Inhibition of BlaR” value [4] was 83% and the “% Inhibition of bacterial growth” value [5] was 0%.

With `OB(O)CCc1nc2ccccc2n1Cc1ccc(C(F)(F)F)cc1C(F)(F)F` [Compound 46] the “% Inhibition of BlaR” value [4] was 0% and the “% Inhibition of bacterial growth” value [5] was 49%.

In the case of `O=C(/C=C/c1ccc(Cl)cc1Cl)NCc1ccc2nc(S)n(Cc3ccc(C(F)(F)F)cc3C(F)(F)F)c2c1` [Compound 25], the “% Inhibition of BlaR” value [4] was 75% and the “% Inhibition of bacterial growth” value [5] was 50%.

`FC(F)(F)c1ccc(Cn2c(CBr)nc3ccccc32)c(C(F)(F)F)c1` [Compound 41] was tested, and the “% Inhibition of BlaR” value [4] was 78% and the “% Inhibition of bacterial growth” value [5] was 36%.

`O=C(/C=C/c1ccc(F)cc1)NCc1ccc2nc(S)n(Cc3ccc(C(F)(F)F)cc3C(F)(F)F)c2c1` [Compound 23] was tested, and the “% Inhibition of BlaR” value [4] was 76% and the “% Inhibition of bacterial growth” value [5] was 70%.

With `N#CCCSc1nc2ccc(C#N)cc2n1Cc1ccc(C(F)(F)F)cc1C(F)(F)F` [Compound 36] the “% Inhibition of BlaR” value [4] was 90% and the “% Inhibition of bacterial growth” value [5] was 40%.

With `O=C(O)C[C@@H]1CC[C@H](NC(=O)Cc2cccs2)B(O)O1` [vaborbactam] the “potentiation of the anti-S. aureus activities of MEM, OXA, FOX and CPT” value [3] was “no activity”.

For `O=C(O)c1ccc2nc(SCB(O)O)n(Cc3ccc(C(F)(F)F)cc3C(F)(F)F)c2c1` [Compound 34], the “% Inhibition of BlaR” value [4] was 92% and the “% Inhibition of bacterial growth” value [5] was 18%.

For `NCc1ccc2nc(S)n(Cc3ccc(C(F)(F)F)cc3C(F)(F)F)c2c1` [Compound 14], the “% Inhibition of BlaR” value [4] was 60% and the “% Inhibition of bacterial growth” value [5] was 0%.

In the case of `O=S(=O)(O)c1nccn1Cc1ccc(C(F)(F)F)cc1C(F)(F)F` [Compound 54], the “% Inhibition of BlaR” value [4] was 18% and the “% Inhibition of bacterial growth” value [5] was 0%.

In the case of `OCC1NC(=S)N(Cc2ccc(C(F)(F)F)cc2C(F)(F)F)N1` (centres unmarked) [Compound 77], the “% Inhibition of BlaR” value [4] was 71% and the “% Inhibition of bacterial growth” value [5] was 30%.

For `OCC1NC(=S)N(c2ccc(C(F)(F)F)cc2)N1` (centres unmarked) [Compound 79], the “% Inhibition of BlaR” value [4] was 75% and the “% Inhibition of bacterial growth” value [5] was 65%.

With `O=S(=O)(O)c1nc2ccccc2n1Cc1ccc(F)cc1C(F)(F)F` [Compound 11] the “% Inhibition of BlaR” value [4] was 78% and the “% Inhibition of bacterial growth” value [5] was 0%.
